{
  "source": "paper PMC3185947",
  "about": "(British Journal of Cancer, 2011)",
  "conditions": "in vivo; for OSI-420 AUC0–24 / OSI-420 Cmax / OSI-420 Tmax, median (range) / OSI-420 Tmax: human",
  "note": "Read-outs that look alike come from different tables or passages of the source. Marks after values point to notes of the source that are not given here.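 Further: pharmacokinetic parameters derived by non-compartmental analysis.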",
  "data": [
    {"smiles": "C#Cc1cccc(Nc2ncnc3cc(OCCOC)c(OCCO)cc23)c1", "note": "[OSI-420]", "values": [
      {"measurement": "OSI-420 AUC0–24", "setting": "150 mg", "value": "2.56 (0.599–10.5) ^a μg h ml^−1"},
      {"measurement": "OSI-420 Cmax", "setting": "150 mg", "value": "0.165 (0.0452–0.568) μg ml^−1"},
      {"measurement": "OSI-420 Tmax, median (range)", "setting": "150 mg", "value": "4.0 (1.05–23.9) h"},
      {"measurement": "OSI-420 AUC0–24", "setting": "200 mg", "value": "4.55 (0.996–19.2) μg h ml^−1"},
      {"measurement": "OSI-420 Cmax", "setting": "200 mg", "value": "0.278 (0.0617–0.864) μg ml^−1"},
      {"measurement": "OSI-420 Tmax, median (range)", "setting": "200 mg", "value": "2.0 (1.00–24.0) h"},
      {"measurement": "OSI-420 AUC0–24", "setting": "225 mg", "value": "4.10 (1.57–19.7) μg h ml^−1"},
      {"measurement": "OSI-420 Cmax", "setting": "225 mg", "value": "0.260 (0.116–0.908) μg ml^−1"},
      {"measurement": "OSI-420 Tmax, median (range)", "setting": "225 mg", "value": "2.0 (0.930–8.00) h"},
      {"measurement": "OSI-420 AUC0–24", "setting": "250 mg", "value": "3.32 (1.52–16.4) μg h ml^−1"},
      {"measurement": "OSI-420 Cmax", "setting": "250 mg", "value": "0.219 (0.119–0.760) μg ml^−1"},
      {"measurement": "OSI-420 Tmax, median (range)", "setting": "250 mg", "value": "4.0 (1.00–8.00) h"},
      {"measurement": "OSI-420 AUC0–24", "setting": "275 mg", "value": "3.62 (1.51–15.7) μg h ml^−1"},
      {"measurement": "OSI-420 Cmax", "setting": "275 mg", "value": "0.223 (0.107–0.929) μg ml^−1"},
      {"measurement": "OSI-420 Tmax, median (range)", "setting": "275 mg", "value": "2.0 (1.00–8.02) h"},
      {"measurement": "OSI-420 AUC0–24", "setting": "300 mg", "value": "4.23 (1.38–6.32) μg h ml^−1"},
      {"measurement": "OSI-420 Cmax", "setting": "300 mg", "value": "0.273 (0.133–0.346) μg ml^−1"},
      {"measurement": "OSI-420 Tmax, median (range)", "setting": "300 mg", "value": "2.0 (1.00–2.03) h"},
      {"measurement": "OSI-420 AUC0–24", "setting": "325 mg", "value": "4.18 (2.26, 6.09) μg h ml^−1"},
      {"measurement": "OSI-420 Cmax", "setting": "325 mg", "value": "0.344 (0.222, 0.426) μg ml^−1"},
      {"measurement": "OSI-420 Tmax, median (range)", "setting": "325 mg", "value": "1.5 (2.00, 1.00) h"},
      {"measurement": "OSI-420 AUC0–24", "setting": "350 mg", "value": "2.33 (2.94, 1.72) μg h ml^−1"},
      {"measurement": "OSI-420 Cmax", "setting": "350 mg", "value": "0.169 (0.243, 0.0945) μg ml^−1"},
      {"measurement": "OSI-420 Tmax, median (range)", "setting": "350 mg", "value": "2.0 (2.00, 2.03) h"},
      {"measurement": "OSI-420 AUC0–24", "setting": "375 mg", "value": 3.80, "unit": "µg·h/mL"},
      {"measurement": "OSI-420 Cmax", "setting": "375 mg", "value": 0.253, "unit": "µg/mL"},
      {"measurement": "OSI-420 Tmax", "setting": "375 mg", "value": 1.0, "unit": "h"},
      {"measurement": "OSI-420 AUC0–24", "setting": "400 mg", "value": 6.84, "unit": "µg·h/mL"},
      {"measurement": "OSI-420 Cmax", "setting": "400 mg", "value": 0.454, "unit": "µg/mL"},
      {"measurement": "OSI-420 Tmax", "setting": "400 mg", "value": 2.0, "unit": "h"},
      {"measurement": "OSI-420 AUC0–24", "setting": "425 mg", "value": 5.02, "unit": "µg·h/mL"},
      {"measurement": "OSI-420 Cmax", "setting": "425 mg", "value": 0.293, "unit": "µg/mL"},
      {"measurement": "OSI-420 Tmax", "setting": "425 mg", "value": 2.0, "unit": "h"},
      {"measurement": "OSI-420 AUC0–24", "setting": "450 mg", "value": 8.78, "unit": "µg·h/mL"},
      {"measurement": "OSI-420 Cmax", "setting": "450 mg", "value": 0.489, "unit": "µg/mL"},
      {"measurement": "OSI-420 Tmax", "setting": "450 mg", "value": 4.0, "unit": "h"},
      {"measurement": "Interpatient and intrapatient variability of PK", "value": "High"}
    ]}
  ]
}
